# According to publication PMC12339328, “Therapeutic effect and mechanism of gigantol on hyperuricemia” (Frontiers in Endocrinology, 2025):
# Where “and” joins values, the source holds several entries; their conditions need not be identical. Equal entries are not always repeated.
# Legend:
# [1] = system: GLUT9; experiment: GLUT9 protein expression in kidney of HUA mice (Western blot); type: in vivo; details: allopurinol 10 mg/kg, p > 0.05
# [2] = system: XOD; details: HUA cell model; allopurinol 100 μmol/L; vs model; p < 0.001
# [3] = system: XOD
# [4] = Pharmacokinetics in rats (LC-MS/MS, WinNonlin); details: for MRT inf: MRT(0-∞); for Cmax: C max; for Tmax: T max
# Description: Whole blood was taken into heparinized tubes at predefined time points (2, 5, 10, 20, and 30 min, and 1, 2, 4, 6, 8, and 12 h) after administration, and plasma was separated by centrifugation and stored at −20°C until testing. […] Whole blood was taken into heparinized tubes at predefined time points (2, 5, 10, 20, and 30 min, and 1, 2, 4, 6, 8, and 12 h) after administration, and plasma was separated by centrifugation and stored at −20°C until testing. […] Pharmacokinetic parameters were calculated by using the pharmacokinetics software WinNonlin 8.1.
# [5] = system: ASC; experiment: ASC protein expression in HK-2 cells (Western blot); details: HK-2; 阳性 = allopurinol 100 µmol/L; replicates 1-3
# [6] = system: OAT1; experiment: OAT1 protein expression in HK-2 cells (Western blot); details: HK-2; 阳性 = allopurinol 100 µmol/L; replicates 1-3
# [7] = system: OAT3; experiment: OAT3 protein expression in HK-2 cells (Western blot); details: HK-2; 阳性 = allopurinol 100 µmol/L; replicates 1-3
# [8] = system: NLRP3; experiment: NLRP3 protein expression in HK-2 cells (Western blot); details: HK-2; 阳性 = allopurinol 100 µmol/L; replicates 1-3
# [9] = system: GLUT9; experiment: GLUT9 protein expression in HK-2 cells (Western blot); details: HK-2; 阳性 = allopurinol 100 µmol/L; replicates 1-3
# [10] = system: Caspase-1; experiment: Caspase-1 protein expression in HK-2 cells (Western blot); details: HK-2; 阳性 = allopurinol 100 µmol/L; replicates 1-3
# [11] = system: OAT1; experiment: OAT1 protein expression in kidney of HUA mice (Western blot); details: allopurinol 10 mg/kg, p > 0.05
# [12] = system: OAT3; experiment: OAT3 protein expression in kidney of HUA mice (Western blot); details: allopurinol 10 mg/kg, p > 0.05
# [13] = Sprague-Dawley, rat, plasma, iv, 5 mg/kg, rats, allopurinol intravenous 5 mg/kg, Average
# [14] = Sprague-Dawley, rat, plasma, iv, 5 mg/kg, rats, allopurinol intravenous 5 mg/kg, individual rats
# [15] = Sprague-Dawley, rat, plasma, po, 50 mg/kg, rats, allopurinol gavage 50 mg/kg, Average
# [16] = Sprague-Dawley, rat, plasma, po, 50 mg/kg, rats, allopurinol gavage 50 mg/kg, individual rats
# [17] = rats, allopurinol gavage 50 mg/kg, individual rats, 50 mg/kg
# [18] = rats, allopurinol intravenous 5 mg/kg, individual rats, 5 mg/kg
compound,measurement,setting,value
Oc1ncnc2[nH]ncc12 [allopurinol],GLUT9 protein expression in kidney,[1],did not show significant effects
same,XOD activity in AML12 cells,[2],significantly downregulate
same,"xod protein expression, band value","[3]; AML12, 阳性 = allopurinol 100 µmol/L, replicates 1-3",155.965 and 209.523 and 140.271
same,XOD protein expression in AML12 cells,"[3]; HUA cell model, allopurinol 100 µmol/L, vs model group",significantly downregulate
same,AUC(0-t),"[4]; Sprague-Dawley, rat, plasma, iv, 5 mg/kg, AUC(0-t), rats, allopurinol intravenous 5 mg/kg, Average",179 ng·h/mL
same,AUC(0-inf),[4]; [13],209 ng·h/mL
same,AUC(0-inf),[4]; [14],170 ng·h/mL
same,C0,"[4]; Sprague-Dawley, rat, plasma, iv, 5 mg/kg, C 0, rats, allopurinol intravenous 5 mg/kg, Average",~225 ng/mL
same,C0,"[4]; Sprague-Dawley, rat, plasma, iv, 5 mg/kg, C 0, rats, allopurinol intravenous 5 mg/kg, individual rats",169 ng/mL
same,MRT inf,[4]; [13],0.79 h
same,MRT inf,[4]; [14],0.73 h
same,bioavailability,"[4]; Sprague-Dawley, rat, plasma, oral, F (absolute bioavailability), rats, allopurinol gavage 50 mg/kg vs intravenous 5 mg/kg",~314%
same,AUC(0-t),"[4]; Sprague-Dawley, rat, plasma, po, 50 mg/kg, AUC(0-t), rats, allopurinol gavage 50 mg/kg, Average",6470 ng·h/mL
same,AUC(0-t),"[4]; Sprague-Dawley, rat, plasma, po, 50 mg/kg, AUC(0-t), rats, allopurinol gavage 50 mg/kg, individual rats",6290 ng·h/mL
same,AUC(0-inf),[4]; [15],~6580 ng·h/mL
same,AUC(0-inf),[4]; [16],6430 ng·h/mL
same,Cmax,[4]; [15],~1350 ng/mL
same,Cmax,[4]; [16],1310 ng/mL
same,MRT inf,[4]; [15],2.5 h
same,MRT inf,[4]; [16],2.06 h
same,Tmax,[4]; [15],1 to 2 h
same,Tmax,[4]; [16],2 h
same,V/F,"[4]; rats, allopurinol gavage 50 mg/kg, Average",14.28 L/kg
same,T max,"[4]; rats, allopurinol gavage 50 mg/kg, Average, 50 mg/kg",1.33 h
same,AUC(0-t),[4]; [17],"6,239.00 h·µg/L and 6,870.26 h·µg/L"
same,AUC(0-∞),[4]; [17],"6,374.71 h·µg/L and 6,922.57 h·µg/L"
same,C max,[4]; [17],"1,440.00 µg/L and 1,310.00 µg/L"
same,MRT(0-∞),[4]; [17],2.68 h and 2.75 h
same,V/F,[4]; [17],15.75 L/kg and 15.77 L/kg and 11.31 L/kg
same,V,"[4]; rats, allopurinol intravenous 5 mg/kg, Average",19.62 L/kg
same,AUC(0-t),[4]; [18],186.21 ng·h/mL and 225.15 ng·h/mL
same,AUC(0-∞),[4]; [18],207.21 µg·h/L and 250.23 µg·h/L
same,C0,[4]; [18],223.22 ng/mL and 281.70 ng/mL
same,MRT(0-∞),[4]; [18],0.81 h and 0.83 h
same,V,[4]; [18],20.68 L/kg and 20.60 L/kg and 17.58 L/kg
same,"asc protein expression, band value",[5],163.648 and 185.065 and 186.261
same,"OAT1 protein expression, band value",[6],174.983 and 217.222 and 169.712
same,"OAT3 protein expression, band value",[7],160.43 and 183.946
same,"NLRP3 protein expression, band value",[8],163.939 and 177.621 and 186.105
same,"GLUT (GLUT9) protein expression, band value",[9],146.392 and 138.006 and 144.372
same,"CASPASE protein expression, band value",[10],147.442 and 190.729 and 189.372
same,OAT1 protein expression in kidney,[11],did not show significant effects
same,OAT3 protein expression in kidney,[12],did not show significant effects
